In ChEMBL document CHEMBL3046767, “Antihepatotoxic activity of a sterol glucoside from aerial parts of Clerodendrum phlomidis” (2012):
Active and inactive are the calls of the source. The calls are words filed in the database; no cut-off is given here.

Legend:
[1] = tested on: Rattus norvegicus; experiment: Antihepatotoxic activity Rattus norvegicus albino Wistar (rat) assessed as recovery of CCl4-induced cell damage at 50 mg/kg, po by hematoxylin and eosin staining; assay type: functional, organism-based; set-up: dose 50 mg/kg
[2] = tested on: Rattus norvegicus; experiment: Antihepatotoxic activity Rattus norvegicus albino Wistar (rat) assessed as reduction of CCl4-induced reduction of serum total protein level at 50 mg/kg, po relative to control; assay type: functional; set-up: scale not given: the % may be the effect or the level left
[3] = tested on: Rattus norvegicus; experiment: Antihepatotoxic activity Rattus norvegicus albino Wistar (rat) assessed as reduction of CCl4-induced increase of serum ALP level at 50 mg/kg, po relative to control; assay type: functional; set-up: scale not given: the % may be the effect or the level left
[4] = tested on: Rattus norvegicus; experiment: Antihepatotoxic activity Rattus norvegicus albino Wistar (rat) assessed as reduction of CCl4-induced increase of serum SGPT level at 50 mg/kg, po relative to control; assay type: functional; set-up: scale not given: the % may be the effect or the level left
[5] = tested on: Rattus norvegicus; experiment: Antihepatotoxic activity Rattus norvegicus albino Wistar (rat) assessed as reduction of CCl4-induced increase of serum SGOT level at 50 mg/kg, po relative to control; assay type: functional; set-up: scale not given: the % may be the effect or the level left

Structure (SMILES): C=C(C)C(/C=C/[C@@H](C)[C@H]1CCC2C3CC=C4C[C@@H](O[C@@H]5O[C@H](CO)[C@@H](O)[C@H](O)[C@H]5O)CC[C@]4(C)C3CC[C@@]21C)CC (stereo not given in full)
- Activity [1]: Active
- Activity [2]: 121.19%
- Activity [3]: 74.77%
- Activity [4]: 52.25%
- Activity [5]: 57.71%
